Test results taken from patent US10414778B2, “Methods for treatment of resistant cancer” (New Mexico Tech University Research Park Corporation, priority 2016, dated 2019).
Like-named read-outs stand apart in the source and are kept apart here.

Key:
[1] = tested on: MES-SA cells; assay: MTT growth inhibition, MES-SA uterine sarcoma; assay type: cell-based; settings: Homo sapiens, MES-SA, MTT
Method: (§1) Human cancer cell lines were obtained from the American Type Culture Collection (ATCC, Manassas, Va., USA), the European Collection of Cell Culture (ECACC, Salisbury, UK), and the Deutsche Sammlung von Mikroorganismen und Zellkulturen (DSMZ, Braunschweig, Germany). Human cervical adenocarcinoma HeLa cells were cultured in DMEM supplemented with 10% fetal bovine serum (FBS). Human mammary carcinoma MCF-7 cells were cultured in RPMI supplemented with 10% FBS. The U87 cells (ATCC HTB-14) were cultured in DMEM culture medium, while the A549 cells (DSMZ ACC107) were cultured in RPMI culture medium supplemented with 10% heat-inactivated FBS. The GBM Hs683 (ATCC HTB-138) and the T98G (ATCC CRL-1690) cell lines were cultivated in DMEM supplemented with 10% FBS. The GBM U251 cells (ECACC code 09063001) were cultured in 10% MEM. The human uterine sarcoma MES-SA and MES-SA/Dx5 cells were cultured in RPMI-1640 medium supplemented with 10% FBS with MES SA/Dx5 maintained in the presence of 500 nM Doxorubicin (Sigma™). The U373 glioblastoma cells (ECACC 08061901) were cultured in RPMI culture medium supplemented with 10% heat-inactivated FBS.
All compounds were dissolved in DMSO at a concentration of either 100 mM or 50 mM prior to cell treatment. The cells were trypsinized and seeded at various cell concentrations depending on the cell type. The cells were grown for 24 h to 72 h, treated with compounds at concentrations ranging from 0.001 to 100 μM, and incubated for 48, 72, or 96 h in 100 or 200 μL media depending on the cell line used. Cells treated with 0.1% DMSO were used as a negative control, and cells treated with 1 μM phenyl arsine oxide (PAO) were used as a positive control. […]
Drug-resistant cell lines (i.e., glioma: Hs683, U373, U251, U87, T98G; lung cancer: A549, H2073; uterine carcinoma: MES-SA/Dx5) were complemented with drug-sensitive cell lines, H1993 lung cancer and MES-SA uterine cancer, which were used as controls. […] The GI50 values were calculated after 48-96 hours of treatment with the indicated compounds in replicate using the MTT growth assay.

[2] = tested on: T98G cells; assay: MTT growth inhibition, T98G glioma; assay type: cell-based, human; settings: Homo sapiens, T98G
Method: as §1
(§2) All compounds were dissolved in DMSO at a concentration of either 100 mM or 50 mM prior to cell treatment. The cells were trypsinized and seeded at various cell concentrations depending on the cell type. The cells were grown for 24 h to 72 h, treated with compounds at concentrations ranging from 0.001 to 100 μM, and incubated for 48, 72, or 96 h in 100 or 200 μL media depending on the cell line used. Cells treated with 0.1% DMSO were used as a negative control, and cells treated with 1 μM phenyl arsine oxide (PAO) were used as a positive control.
(§3) Compound 4l was evaluated for in vitro growth inhibition against a panel of cancer cell lines, including U373, U251, U87, T98G, human GBM, and A549 NSCLC. […] Compound 4l was also evaluated for in vitro growth inhibition against the apoptosis-sensitive tumor model Hs683 anaplastic oligodendroglioma as a reference.
(§4) Due to their high potencies, compounds 5l and 5g were used to determine the effects of the compounds on drug-resistant tumor cells. Drug-resistant cell lines (i.e., glioma: Hs683, U373, U251, U87, T98G; lung cancer: A549, H2073; uterine carcinoma: MES-SA/Dx5) were complemented with drug-sensitive cell lines, H1993 lung cancer and MES-SA uterine cancer, which were used as controls. Bulbispermine and paclitaxel were also used as controls. The GI50 values were calculated after 48-96 hours of treatment with the indicated compounds in replicate using the MTT growth assay.

[3] = tested on: five GBM cell cultures (U373, T98G, U251, Hs683, U87); assay: MTT growth curves of five GBM cell cultures (populations resistant to proapoptotic agents); assay type: cell-based, human
Source text: Cells resistant to various pro-apoptotic stimuli often contain a sensitive population that quickly response to pro-apoptotic agents. However, a significant portion of the cells in a culture resist the effects of pro-apoptotic agents even at concentrations 100- or 1000-fold their GI50 values.

[4] = tested on: H2073 cells; assay: MTT growth inhibition, H2073 drug-resistant NSCLC; assay type: cell-based, human; settings: for decrease in potency toward H2073 cells relative to H1993 cells: H2073 versus H1993; for GI50: Homo sapiens, NCI-H2073, MTT
Method: NSCLC cell lines H1993 and H2073 were obtained from the Hamon Center for Therapeutic Oncology Research at UT Southwestern Medical Center and cultured in RPMI-1640 medium (Mediatech, VA, USA) supplemented with 5% heat-inactivated FBS (Mediatech™), 100 units/mL penicillin and 0.1 mg/mL streptomycin (Sigma™). All cell lines were cultured in T25 flasks, maintained, and grown at 37° C., 95% humidity, 5% CO2.
as §2
Spirodienone 4l was evaluated against patient-derived NSCLC cell line H1993 and its drug-resistant variant, H2073. The patient-derived NSCLC cell line […] was obtained from a regrown tumor at a primary site after a patient relapsed several months later.
as §4
Compound 5l was further tested to determine the effect of compounds of the invention on drug-resistant tumor cells. A patient-derived non-small cell lung cancer (NSCLC) line, H1993, and the drug-resistant variant of H1993, H2073, were used for testing. The H1993 cell line was obtained from a lymph node metastasis isolated from the patient prior to chemotherapy. The H2073 cell line was derived from a regrown tumor at the primary site after the patient had relapsed several months after administration of the chemotherapy regimen.

[5] = tested on: MES-SA/Dx5 cells; assay: MTT growth inhibition, MDR uterine sarcoma MES-SA/Dx5; assay type: cell-based, human; settings: for GI50: Homo sapiens, MES-SA/Dx5, MTT
Method: as §1, §2
Compound 4l was also evaluated against the MDR uterine sarcoma cell line (MES-SA/Dx5 to evaluate whether the compounds of the invention were substrates for the MDR cancer efflux systems. The MES-SA/Dx5 cell line was established from the parent uterine sarcoma MES-SA, grown in the presence of increasing concentrations of doxorubicin and is known to be resistant to a number of P-gp substrates.
The selection of doxorubicin-resistant cells (MES-SA/Dx5 cell line) was performed by splitting the cells and allowing the cells to adhere overnight. The next day, the cells were initially exposed to a DOX concentration of 100 nM, which represented the GI50 concentration. The cells were maintained at this DOX concentration until their growth rate reached that of the untreated cells. The DOX concentration was then increased in two-fold increments following the same growth criteria at each concentration to a final DOX concentration of 500 nM. Each new DOX concentration required approximately 2 passages to reach the growth rate of the untreated cells.
as §4

[6] = tested on: U373 glioblastoma cells; assay: MTT growth inhibition, U373 glioma; assay type: cell-based, human; settings: Homo sapiens, U373 MG
Method: as §1, §2, §3, §4

Row | GI50 ([1]; Table 3, 48-96 h treatment, read-out: GI50 in vitro values, uterine sarcoma MES-SA) | GI50 ([2]; Table 3, 48-96 h treatment, read-out: GI50 in vitro values, glioma T98G) | GI50 ([4]; Table 3, 48-96 h treatment, read-out: GI50 in vitro values, lung cancer H2073) | GI50 ([5]; Table 3, 48-96 h treatment, read-out: GI50 in vitro values, uterine sarcoma MES-SA/Dx5) | GI50 ([6]; Table 3, 48-96 h treatment, read-out: GI50 in vitro values, glioma U373) | GI50 ([1]; Table 5, 48-96 hours of treatment, read-out: GI50, Sarcoma MES-SA) | GI50 ([2]; Table 5, 48-96 hours of treatment, read-out: GI50, Glioma T98G) | GI50 ([4]; Table 5, 48-96 hours of treatment, read-out: GI50, Lung Cancer H2073) | GI50 ([5]; Table 5, 48-96 hours of treatment, read-out: GI50, Sarcoma MES-SA/Dx5) | GI50 ([6]; Table 5, 48-96 hours of treatment, read-out: GI50, Glioma U373) | Structure (SMILES) | resistant populations in growth curves of GBM cell cultures ([3]; 5 GBM cell lines, FIG. 1, one experiment in six replicates) | decrease in potency toward H2073 cells relative to H1993 cells [4] | variation in activity, MDR cell line versus parent cell line ([5]; MES-SA/Dx5 versus MES-SA) | dose-dependent effects against cell populations resistant to proapoptotic agents ([3]; U373, T98G, U251, Hs683, U87, MTT, FIG. 8)
1 | 5 µM | 15 µM | 50 µM | 5 µM | 7 µM | – | – | – | – | – | O=C1C=CC2(C=C1)CCN(C(=O)C(F)(F)F)Cc1c2sc2ccccc12 [Compound 4l] | absence of such resistant populations | significantly less pronounced than that observed with paclitaxel | small variation in activity | –
2 | – | – | – | – | – | 2 µM | 7 µM | 11 µM | 7 µM | 7 µM | O=C1C=C[C@]23CC[N@](Cc4c2sc2ccccc42)[C@H]3C1 [Compound 5l] | – | less drastic | – | dose-dependent effects
